Patent publication US20080221074A1, “Drug Screen and Treatment Method” (priority 2006, published 2008)

Experiments:
[1] = tested on: lethal amount of bacterial lipopolysaccharide (LPS); assay: lethal shock protocol; assay type: in vivo, mice
Method: Treatment of lethal inflammation/shock. Two compounds, 16α-bromoepiandrosterone (3β-hydroxy-16α-bromoandrostane-17-one) and 3β,16α-dihydroxy-17-oxoandrostane, were used in a lethal shock protocol. In one protocol, 3 mg of 16α-bromoepiandrosterone was administered to one group of animals by oral gavage, while another group received 3 mg of 16α-bromoepiandrosterone by subcutaneous injection. A group of control animals received a placebo control. In this protocol, the 16α-bromoepiandrosterone was administered to mice at 24 hours before and at 1 hour after administration of a lethal amount of bacterial lipopolysaccharide (LPS). By the end of the observation period, 72 hours after LPS administration, none of the vehicle treated placebo control animals had survived, while 65% of animals that received 16α-bromoepiandrosterone by oral administration survived. 50% of the animals that received 16α-bromoepiandrosterone by subcutaneous injection survived. Animals that survived for 72 hours all recovered from the LPS exposure.
In a second assay, 16α-bromoepiandrosterone or 3β,16α-dihydroxy-17-oxoandrostane was administered to mice by oral gavage at 24 hours before and 1 hour after administration of a lethal amount of LPS. A vehicle treated group of animals was used as the placebo control.

human whole blood = assay: γ-interferon production in human whole blood exposed to LPS; assay type: cell-based; conditions: 24 hours with LPS; 16α-bromoepiandrosterone at 100 ng/mL
Method: Anti-inflammation activity in human cells in vitro. […] The amount of γ-interferon was measured in the growth medium when the cells had been incubated in the presence of LPS for 24 hours.

Pseudomonas aeruginosa = assay: clearance of Pseudomonas aeruginosa infection from lung tissue; assay type: in vivo, CFTR mice; conditions: 40 mg/kg; day 10; vs vehicle
Method: Clearance of bacteria from lung tissue. The capacity of 16α-bromoepiandrosterone to clear a Pseudomonas aeruginosa infection from lung tissue was shown using a previously published protocol, A. van Heeckeren et al., J. Clin. Invest., 100(11):2810-2815 […]; A. van Heeckeren et al., Am. J. Respir. Crit. Care Med., 161:271-279 2000. The protocol was conducted in CFTR mice, which are used as an animal model for human cystic fibrosis, S. D. Freedman et al., Proc. Natl. Acad. Sci. USA, 96(24):13995-14000 1999; W. Zeng et al., Am. J. Physiol. Cell. Physiol. […] Establishment of chronic P. aeruginosa infection using agarose beads containing bacteria (50 μL containing about 6.1×10^4 CFU/animal) was published earlier, J. R. Starke et al., Pediatr. Res., 22:698-702 1987. Two groups of mice (n=9 for each group) were treated with 40 mg/kg of 16α-bromoepiandrosterone or vehicle (control) and the bacterial burden in the lungs of the animals was determined at 10 days after introduction of the agarose beads into the lung.

NF-κB = assay: inhibition of NF-κB activation in NF-κB-bla THP-1 cells after LPS stimulation; assay type: cell-based, human
Summary of the method: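 THP-1 monocytes stably carrying an NF-κB response element–driven β-lactamase reporter, plated about 24 h before activation with LPS at 0.2 ng/mL. Reporter activity measured by FRET ratiometric detection; values are averages of usually 2-4 runs per compound.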

[2] = tested on: CD4^+CD25^+ T regulatory cells; assay: generation of CD4+CD25+ T regulatory cells after adoptive transfer; assay type: in vivo, B6 mice; conditions: 1 mg/animal/day s.c. 14 days
Method: Inhibition of the generation of CD4^+CD25^+ T regulatory cells or their activity in vivo. Purified CD4^+CD25^− T cells (5×10^6 cells) from congenic B6.SJL mice (CD45.1) per group were adoptively transferred into each of five B6 mice (CD45.2). The purified CD4^+CD25^− T cells were obtained by fluorescence activated cell sorting (FACS) of the donor cells at least twice. Vehicle (0.1% carboxymethylcellulose, 0.9% saline, 2% tween 80, 0.05% phenol) or 16α-bromoepiandrosterone in vehicle (1 mg/animal/day in 100 μL vehicle) was injected subcutaneously before transfer of the cells from the CD45.1 donor animals and the injections were continued daily for 14 days. Thymus, lymph nodes and spleens were collected from the animals at day 15. Samples of thymus, lymph node and spleen were obtained from individuals, and the cells were labeled with fluorescent antibody that bound to CD4, CD25, CD103 or Foxp3. The cells were then analyzed by flow cytometry to enumerate the numbers of the various cell types. The remainder of cells from lymph nodes and spleen of each treatment group were pooled, pre-enriched for CD4^+CD25^+ cells and then analyzed for CD4^+CD25^+ that arose from the host (endogenous CD45.2 cells) and from donor cells (CD45.1 cells that converted from the CD4^+CD25^− donor phenotype to the CD4^+CD25^+ phenotype after residing in vivo for 15 days). The cells were analyzed by cell sorter. To test for regulatory function, varying numbers of purified converted CD45.1 or endogenous CD45.2 CD4^+CD25^+ cells were co-cultured with 2000 CD4^+CD25^− responder cells, 1×10^5 irradiated spleen cells as antigen presenting cells, and […] of anti-CD3 antibody. Fresh CD4^+CD25^+ cells were used as controls. Proliferation was determined by measurement of ^3H-thymidine uptake 4 days after initiation of culture.

C[C@]12CC[C@H](O)C[C@@H]1CC[C@@H]1[C@@H]2CC[C@]2(C)C(=O)[C@H](Br)C[C@@H]12 [16α-bromoepiandrosterone]
survival 72 hours after LPS ([1]; 3 mg oral gavage 24 h before and 1 h after LPS): 65% | survival 72 hours after LPS ([1]; 3 mg subcutaneous injection 24 h before and 1 h after LPS): 50% | survival 72 hours after LPS ([1]; second assay, oral gavage 24 h before and 1 h after LPS): 80% | production of γ-interferon (human whole blood): Reduced production | bacterial burden in the lungs (Pseudomonas aeruginosa): reduced | maximum inhibition of NF-κB (NF-κB): 100% | IC50 (NF-κB; LPS stimulation, 50% of the compound's maximum inhibition, averages, read-out: IC50): 8.8 µM | donor CD45.1 CD4^+CD25^+CD103^+ cells of total donor CD4^+CD25^+ cells in spleen [2]: 9.63% | proportion of endogenous CD45.2 CD4^+CD25^+CD103^+ Treg cells in spleen [2]: 13.40% | donor CD45.1 CD4^+CD25^+ cell number in spleen ([2]; day 15): 0.62×10^5 cells | endogenous CD45.2 CD4^+CD25^+ cell number in spleen ([2]; day 15): 5.49×10^6 cells | endogenous CD45.2 CD4^+CD25^+ cells in the thymus ([2]; day 15): 1.59×10^5
